Test results reported in patent publication US12721870B2 (priority 2021, dated 2026).
Values joined by “and” are separate entries in the source; they are usually repeats but may differ in a detail not shown here. Identical values can stand only once.

Columns and labels:
[1] = test system: cyclophosphamide (CPP)-induced animal model; experiment: Thymus and spleen weight in CPP-induced animal model; format: in vivo; details: mice
Description: To confirm the immunity-enhancing efficacy of the V5 strain in a cyclophosphamide (CPP)-induced animal model, tests were performed for each concentration of the V5 strain. Cyclophosphamide (CPP) is an anticancer drug widely used for all types of cancers, sarcomas, leukemia, and malignant lymphoma, and is a non-specific immunosuppressant. […] When CPP suppresses immunity, the weight of the thymus, an immune tissue, and the number of thymocytes are reduced, and the spleen weight is increased as a result of a defense mechanism against immunosuppression.
To confirm the effect of the V5 strain on the weight of the thymus and spleen of a CPP-induced animal model, the weight of the thymus and spleen of the animal model was measured.

splenocytes = experiment: Cell viability of splenocytes from CPP-induced animal model (WST); format: in vivo; details: mice, 150 mg/kg CPP only, splenocytes incubated 48 hours
Description: To measure the cell viability of splenocytes, a collection of cells involved in various cellular immunity, splenocytes from each mouse were seeded in a 96-well plate at 1×10^4 cells/well and then incubated in a 37° C. CO2 incubator for 48 hours. Next, the splenocytes were treated with WST to measure cell viability.

[2] = test system: Th1, Th2, Th17, and Treg cells; experiment: T cell subset marker mRNA in splenocytes of CPP-induced animal model (qPCR); format: in vivo; details: mice, 150 mg/kg CPP only
Description: In addition, RNA was isolated from the splenocytes at 2×10^6 cells/sample using a TRIZOL® reagent (Thermo, US), and cDNA was synthesized using ACCUPOWER® RT PreMix & Master Mix (Bioneer, KO). To confirm changes in differentiation of Th1, Th2, Th17, and Treg cells, T cell subsets, using the synthesized cDNA and ACCUPOWER® GreenStar™ qPCR PreMix (Bioneer, KO), expression levels of TBX21, GATA3, RORγt, IL-17A, Foxp3, and CTLA-4 mRNA in these cells were measured.

[3] = test system: cyclophosphamide (CPP)-induced animal model; experiment: Antibodies in blood of CPP-induced animal model (ELISA); format: in vivo; details: mice, 150 mg/kg CPP only, serum ELISA
Description: (§1) The blood of a CPP-induced animal model was reacted at room temperature for two hours and then centrifuged at 4000 rpm for 10 minutes to isolate serum. The secretion amounts of IgG, IgA, and IgM were measured from the isolated serum using an ELISA kit (Thermo, US).

[4] = test system: cyclophosphamide (CPP)-induced animal model; experiment: Cytokines in blood of CPP-induced animal model (ELISA); format: in vivo; details: mice, 150 mg/kg CPP only, serum ELISA; tendency
Description: as §1
In addition, enzyme-linked immunosorbent assay (ELISA) for IL-6, IL-2, IL-10, and IL-4 was performed using the serum.

[5] = test system: natural killer cells (NK cells); experiment: Cytotoxicity of NK cells from CPP-induced animal model (LDH, YAC-1 cells); details: mice, 150 mg/kg CPP only, YAC-1 cells: splenocytes 1:50, four hours
Description: The test was performed in the following four groups with seven mice per group: a normal control (NC), a group treated with 150 mg/kg of CPP, a group treated with 1×10^9 CFU/mouse (10^9 CFU) ATG-V5 (V5 strain), and a group treated with 1×10^10 CFU/mouse (V5 10^10 CFU) ATG-V5 (V5 strain).
To measure the cytotoxicity of natural killer cells (NK cells), the spleen was isolated from a CPP-induced animal model, and then the tissue was ground to obtain splenocytes. Next, the splenocytes were mixed with YAC-1 cells in a ratio of the YAC-1 cells: the splenocytes of 1:50 and then incubated in a CO2 incubator at 37° C. for four hours. The amount of LDH was measured using an LDH-cell cytotoxicity assay kit.

For O=P1(N(CCCl)CCCl)NCCCO1 (stereo not drawn) [CPP, cyclophosphamide], the Thymus weight ([1]; group treated with 150 mg/kg of CPP only (normal control 0.061 g), 150 mg/kg) was 0.03 g and 0.031 g, the Spleen weight ([1]; group treated with 150 mg/kg of CPP only (normal control 0.105 g)) was 0.170 g and the “Cell viability of splenocytes” value (splenocytes) was 99.98%. The “Overall number of T cell subsets (mRNA in splenocytes)” value [2] was “suppressing”, the “Secretion amount of IgA in the blood” value [3] was “reduced” and the “Secretion amount of IgG in the blood” value [3] was “reduced”. For the same compound, the “Secretion amount of IgM in the blood” value [3] was “failed to cause changes”, the “Cytokines in the blood (IL-6, IL-2, IL-10, IL-4)” value [4] was “reduced” and the “Cytotoxicity of NK cells” value [5] was 144%.
